Test results from ChEMBL document CHEMBL5352398 (Eur J Med Chem, 2022).
The source made the active and inactive calls. The rule behind the calls is not given here.

Assays:
[1] = Hepatotoxicity in Kunming mouse assessed as reduction in serum GSH level at 50 mg/kg, ip and incubated for 12 hrs; assay type: toxicity, organism-based; details: in vivo
[2] = Cytotoxicity against human HepG2 cells assessed as inhibition of cell growth at 400 uM incubated for 72 hrs by MTT assay relative to control; assay type: toxicity, cell-based
[3] = Subacute toxicity in Kunming mouse assessed as animal death at 50 mg/kg,po for 14 days; assay type: organism-based; details: in vivo, 336 h, time 14 day
[4] = Toxicity in Kunming mouse assessed as steatosis in liver at 50 mg/kg, po and measured after 14 days by HE staining based microscopy; assay type: organism-based; details: in vivo, 336 h, time 14 day
[5] = MRT (0 to infinity) in Sprague-Dawley rat at 5 mg/kg, po and measured upto 24 hrs by LC-MS/MS analysis; assay type: ADME, organism-based; details: in vivo
Mus musculus = assay: Anti-hyperuricemic activity against potassium oxonate induced hyperuricemia in Kunming mouse model assessed as decrease in serum urate level at 2 mg/kg, po and measured after 3 hrs; assay type: functional, organism-based
[6] = Subacute toxicity in Kunming mouse assessed as lethargy at 50 mg/kg,po for 14 days; assay type: organism-based; details: in vivo, 336 h, time 14 day
[7] = Hepatotoxicity in Kunming mouse assessed as increase in ALT level in serum at 50 mg/kg,po for 14 days in presence of BSO; assay type: toxicity, organism-based; details: in vivo, 336 h, time 14 day
[8] = biological target: T1, Broad substrate specificity ATP-binding cassette transporter ABCG2 (Homo sapiens, UniProt Q9UNQ0); assay: Inhibition of ABCG2 (unknown origin) transfected in HEK293 cell membrane vesicle assessed as inhibition of 14C-uric acid uptake incubated for 15 mins in presence of ATP by liquid scintillation counter analysis; assay type: cell membranes
T1 sequence (Q9UNQ0 whole entry): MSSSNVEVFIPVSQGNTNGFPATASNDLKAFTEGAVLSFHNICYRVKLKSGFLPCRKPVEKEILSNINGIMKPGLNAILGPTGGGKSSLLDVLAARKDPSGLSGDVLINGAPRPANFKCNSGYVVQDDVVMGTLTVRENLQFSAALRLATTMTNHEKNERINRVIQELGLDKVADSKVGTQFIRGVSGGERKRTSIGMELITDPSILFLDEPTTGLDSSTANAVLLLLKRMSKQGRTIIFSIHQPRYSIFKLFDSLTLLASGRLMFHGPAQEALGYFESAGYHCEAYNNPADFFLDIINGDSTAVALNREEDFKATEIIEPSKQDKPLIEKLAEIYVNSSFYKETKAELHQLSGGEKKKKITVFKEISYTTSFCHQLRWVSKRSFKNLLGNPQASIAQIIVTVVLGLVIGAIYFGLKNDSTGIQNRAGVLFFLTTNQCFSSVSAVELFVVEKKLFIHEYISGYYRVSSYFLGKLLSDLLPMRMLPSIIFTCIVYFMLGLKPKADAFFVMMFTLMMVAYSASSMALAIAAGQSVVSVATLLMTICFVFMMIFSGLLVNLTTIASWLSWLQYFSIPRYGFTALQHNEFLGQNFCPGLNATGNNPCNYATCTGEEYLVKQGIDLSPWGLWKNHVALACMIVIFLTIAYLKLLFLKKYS

[9] = MRT (0 to infinity) in Sprague-Dawley rat at 5 mg/kg, iv and measured upto 24 hrs by LC-MS/MS analysis; assay type: ADME, organism-based; details: in vivo
[10] = Hepatotoxicity in Kunming mouse assessed as reduction in serum GSH level at 50 mg/kg, ip and incubated for 1 hr relative to control; assay type: toxicity, organism-based; design: scale not given: the % may be the effect or the level left; details: in vivo
[11] = Toxicity in Kunming mouse assessed as inflammatory infiltration in liver at 50 mg/kg, po administered and measured after 14 days by HE staining; assay type: organism-based; details: in vivo, 336 h, time 14 day
[12] = Toxicity in Kunming mouse assessed as irregular cell arrangements at 50 mg/kg, po and measured after 14 days by HE staining based microscopy; assay type: organism-based; details: in vivo, 336 h, time 14 day
[13] = Tmax in Sprague-Dawley rat at 5 mg/kg, po and measured upto 24 hrs by LC-MS/MS analysis; assay type: ADME, organism-based; details: in vivo
[14] = Oral bioavailability in Sprague-Dawley rat at 5 mg/kg and measured upto 24 hrs by LCMS analysis; assay type: ADME, organism-based; details: in vivo
[15] = Toxicity in Kunming mouse assessed as mild inflammatory infiltration in liver at 50 mg/kg, po and measured after 14 days by HE staining based microscopy; assay type: organism-based; details: in vivo, 336 h, time 14 day
[16] = Toxicity in Kunming mouse assessed as dilated vacuolization in liver at 50 mg/kg, po and measured after 14 days by HE staining based microscopy; assay type: organism-based; details: in vivo, 336 h, time 14 day
[17] = Hepatotoxicity in Kunming mouse assessed as reduction in GSH level in serum at 50 mg/kg, ip and incubated for 1 hr (reference value: 41.68 uM); assay type: toxicity, organism-based; details: in vivo
[18] = Tmax in Sprague-Dawley rat at 5 mg/kg, iv and measured upto 24 hrs by LC-MS/MS analysis; assay type: ADME, organism-based; details: in vivo
[19] = Toxicity in Kunming mouse assessed as appearance of normal glomerulus cells in kidney at 50 mg/kg, po administered and measured after 14 days by HE staining; assay type: organism-based; details: in vivo, 336 h, time 14 day
[20] = biological target: T2, Solute carrier family 2, facilitated glucose transporter member 9 (Mus musculus) (UniProt Q3T9X0); assay: Inhibition of mouse GLUT9 transfected in human HEK293 cells assessed as inhibition of uric acid induced current at 10 uM by cell patch-clamp assay; assay type: cell-based
T2 sequence (whole entry): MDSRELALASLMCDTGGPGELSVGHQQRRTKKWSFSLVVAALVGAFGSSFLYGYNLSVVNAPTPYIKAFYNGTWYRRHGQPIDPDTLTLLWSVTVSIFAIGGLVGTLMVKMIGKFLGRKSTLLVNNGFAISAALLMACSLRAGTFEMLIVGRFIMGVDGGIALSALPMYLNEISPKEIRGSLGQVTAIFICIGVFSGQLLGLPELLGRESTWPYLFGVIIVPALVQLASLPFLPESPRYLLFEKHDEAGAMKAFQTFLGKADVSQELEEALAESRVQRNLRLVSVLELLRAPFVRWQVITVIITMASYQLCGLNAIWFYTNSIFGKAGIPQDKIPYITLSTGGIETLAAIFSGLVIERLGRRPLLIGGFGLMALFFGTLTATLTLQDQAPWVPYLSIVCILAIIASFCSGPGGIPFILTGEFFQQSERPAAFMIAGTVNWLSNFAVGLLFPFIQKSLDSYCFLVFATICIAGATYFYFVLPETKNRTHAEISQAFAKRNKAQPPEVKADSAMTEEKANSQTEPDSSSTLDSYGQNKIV

[21] = Renal toxicity in Kunming mouse assessed as effect on creatinine level at 50 mg/kg,po for 14 days; assay type: organism-based; details: in vivo, 336 h, time 14 day
[22] = Cytotoxicity against human HK-2 cells assessed as inhibition of cell growth at 400 uM incubated for 72 hrs by MTT assay relative to control; assay type: toxicity, cell-based
[23] = AUC(0 to infinity) in Sprague-Dawley rat at 5 mg/kg, iv and measured upto 24 hrs by LC-MS/MS analysis; assay type: ADME, organism-based; design: dose 5 mg/kg, time < 24 hrs, route iv; details: in vivo
HepG2 = assay: Cytotoxicity against human HepG2 cells assessed as reduction in cell viability at 100 uM incubated for 72 hrs by MTT assay; assay type: toxicity, cell-based; details: hepg2, 72 h
[24] = biological target: T3, Solute carrier family 2, facilitated glucose transporter member 9 (Mus musculus, UniProt Q3T9X0); assay: Inhibition of mouse GLUT9 transfected in human HEK293 cells assessed as inhibition of uric acid induced current by cell patch-clamp assay; assay type: cell-based
T3 sequence (Q3T9X0 whole entry): T2 sequence (whole entry)

With `CCc1oc2ccccc2c1C(=O)c1cc(Br)c(O)c(Br)c1` [BENZBROMARONE] the Activity [1] was “Toxic”, the inhibition at 72 h, 400 µM [2] was 65.7% and the Activity [3] was “Non-Toxic”. The Activity [4] was “Non-Toxic”, the MRT inf [5] was 3.48 h and the Activity (Mus musculus) was “Active”. For the same compound, the Activity [6] was “Non-Toxic”, the Activity [7] was “Non-Toxic” and the IC50 [8] was 340 nM. For the same compound, the MRT inf [9] was 3.75 h, the Activity [10] was 74.29% and the Activity [11] was “Non-Toxic”. For the same compound, the Activity [12] was “Non-Toxic”, the Tmax [13] was 0.63 h and the bioavailability [14] was 36.1%. For the same compound, the Activity [15] was “Toxic”, the Activity [16] was “Toxic” and the Activity [17] was 10.72 µM. For the same compound, the Tmax [18] was 0.5 h, the Activity [19] was “Non-Toxic” and the inhibition [20] was 26%. The Activity [21] was “Non-Toxic”, the inhibition at 72 h, 400 µM [22] was 40.1% and the AUC(0-inf) [23] was 30700 ng·h/mL. For the same compound, the Activity (HepG2) was “Toxic” and the IC50 [24] was over 20000 nM.
